Legend:
[1] = tested on: p110δ; assay: IC87114 inhibitor validation: pAkt immunoblotting after lysophosphatidic acid stimulation; type: cell-based, human; conditions: MCF10A-5E cells, 20 μM IC87114 pre-treatment for one hour, 10 μM lysophosphatidic acid for five minutes
Experimental: For p110δ inhibitor experiments, 20 μM IC87114 (Calbiochem) was added to the assay medium and replaced every four days. IC87114 inhibitor validation was performed as follows. MCF10A-5E cells were plated in 6-well dishes and cultured in serum-free medium overnight. Wells were pre-treated with or without 20 μM IC87114 (Calbiochem) for one hour and then stimulated with 10 μM lysophosphatidic acid (Sigma-Aldrich) for five minutes. Cells were lysed as previously described (Wang et al. (2011) Proc Natl Acad U S A 108(40):E803-812), and lysates were probed for pAkt levels by immunoblotting.
Immunoblotting was performed as follows. 30-50 μg of clarified cell extract was separated on an 8% or 10% SDS-PAGE gel and transferred to PVDF (Millipore). Membranes were blocked in 0.5×Odyssey blocking buffer (Licor) for one hour and incubated overnight at 4° C. in 0.5×Odyssey blocking buffer with 0.1% Tween containing one of the following primary antibodies: anti-p110δ (1:500; Santa Cruz Biotechnology) or anti-pAkt Ser473 (1:1000; Cell Signaling). Additionally, chicken anti-tubulin (1:20000; Abeam) was added to each primary solution as a loading control. […]

[2] = tested on: MCF10A-5E cells; assay: Proliferation of acini in 3D culture (phospho-Rb whole-mount immunofluorescence); type: cell-based, human; conditions: shGFP control cells + 20 μM IC87114, replaced every four days
Experimental: We next asked whether PIK3CD was specifically important for normal acinar morphogenesis. To eliminate the very-rare PIK3CD^hi subpopulation, p110δ was perturbed by two independent methods: RNA interference and the p110δ-specific small-molecule inhibitor, IC87114 (Knight et al. (2006) Cell 125(4):733-747) (FIG. 18A and FIG. 21). […] Primers were annealed at 95° C. in annealing buffer (10 mM Tris-HCl, 100 mM NaCl, 1 mM EDTA) for 5 min on a thermocycler and cooled slowly to room temperature by unplugging the instrument. Annealed primers were phosphorylated in vitro with T4 polynucleotide kinase (New England Biolabs) and then cloned into pLKO.1 puro (Moffat et al. (2006) Cell 124(6):1283-1298) that had been digested with EcoRI and AgeI. Lentiviruses were packaged and transduced into MCF10A-5E cells and selecting with 2 μg/ml puromycin as previously described (Wang et al. (2011) Proc Natl Acad Sci U S A 108(40):E803-812) to produce shGFP and shPIK3CD cell lines. MCF10A (shGFP, and shPIK3CD) cell lines were cultured in 3D as previously described (Debnath et al. (2003) Methods 30(3):256-268). […]
Whole-mount immunofluorescence of shGFP and shPIK3CD cultures was performed as previously described (Wang et al. (2011) Proc Natl Acad U S A 108(40):E803-812). […] Samples were scored for pRb-positive acini as before (Wang et al. (2011) Proc Natl Acad Sci U S A 108(40):E803-812).

Cc1ccccc1-n1c(Cn2cnc3c(N)ncnc32)nc2cccc(C)c2c1=O [IC87114]
Akt phosphorylation (pAkt Ser473 levels) stimulated by p110δ [1]: inhibits Akt phosphorylation
proliferating (pRb-positive) acini [2]: sustained proliferation

— patent US10453555B2, “Parameterizing cell-to-cell regulatory heterogeneities via stochastic transcriptional profiles” (University of Virginia Patent Foundation, priority 2015, dated 2019)
